Values joined by “and” are separate entries in the source; they are usually repeats but may differ in a detail not shown here. Equal entries are not always repeated. Where two headings read alike, the source gives them in different places.
What was measured:
[1] = tested on: winter wheat, soy, and strawberry protoplasts; assay: Protoplast viability by light microscope, other species; type: cell-based; details: day 8, 0, 50 or 100 millimolar calcium
soybean protoplasts = assay: Protoplast viability (Evans blue staining, light microscope); type: cell-based
maize B73 protoplasts = details: for Viability (%): 100 mM Ca; for protoplast viability: 288 hours, YPIM B- medium
Protocol: (§1) Separate suspensions of maize B73 and A188 protoplasts (2×10^5 cells per milliliter) were prepared in YPIM B-liquid medium containing various combinations of the added salts calcium chloride, potassium ascorbate, and magnesium chloride or magnesium sulfate. One-half milliliter aliquots of the suspensions were dispensed into a 24-well microtiter plate in the arrangement shown in Table 2, which lists the concentrations of calcium chloride (“Ca”), potassium ascorbate (“A”), and magnesium chloride (“MgCl2”) or magnesium sulfate (“MgSO4”) in millimolar values.
(§2) Viability was judged by Evans blue staining and visualization under a light microscope.
Separate suspensions of maize B73, winter wheat, soy, and strawberry protoplasts (2×10^5 cells per milliliter) were prepared in YPIM B-liquid medium containing calcium chloride at 0, 50, or 100 millimolar. One-half milliliter aliquots of the suspensions were dispensed into a 24-well microtiter plate.
Viability at day 8 of culture was judged by visualization under a light microscope.
Viability at day 13 was judged by Evans blue staining and visualization under a light microscope.
(§3) Separate suspensions of maize B73 protoplasts (2×10^5 cells per milliliter) were prepared in PIM B-liquid medium (identical to YPIM B-medium except with the 6-benzylaminopurine substituted with 0.022 milligrams/L thidiazuron) containing calcium chloride added at 0, 5, 20, 40, 70, or 100 millimolar. One-half milliliter aliquots of the suspensions were dispensed into a 24-well microtiter plate.
Viability was judged by visualization under a light microscope at day 7 and at day 14 of culture.
as §3, with “B73 and A188” for “B73”, “0” for “0, 5, 20, 40, 70,”, “50” for “100”
(§4) Viability was judged by visualization under a light microscope.
(§5) Separate suspensions of maize B73 and A188 protoplasts (2×10^5 cells per milliliter) were prepared in YPIM B-liquid medium containing (a) calcium chloride added at 100 millimolar, or (b) 1 millimolar glutathione, or (c) no added calcium or glutathione. One-milliliter aliquots of the suspensions were dispensed into a 24-well microtiter plate. At 16, 40, 64, and 136 hours of culture, 50-microliter samples were taken for hemocytometer analysis from each well; for the plates containing maize A188 protoplasts, parallel 50-microliter samples were taken from a replicate well at 16, 40, and 64 hours of culture for quantification using a Cellometer cell counter (Nexcelom Bioscience LLC, Lawrence, Mass.).
(§6) Viability was determined by Evans blue staining and quantification using a hemocytometer. Under conditions with high concentrations of calcium, Evans blue can create precipitates that interfere with cell counting; to prevent this, 5 microliters of an EDTA solution was added to the samples from the wells containing 100 millimolar calcium chloride immediately prior to staining.

maize HiIIA protoplasts = assay: Cell division rate by EdU staining (% EdU); type: cell-based; details: 100 mM Ca^2+
Protocol: (§7) Cell division was monitored, e.g., by microscopic observations. […] Evidence of cell division was observed by microscopy and included increased cell or protoplast size, bulging membranes, and large groups of organelles occupying the separating daughter cells. Quantification of cell division was carried out using fluorescent staining. Cells were treated with the thymidine analogue 5-ethynyl-2′-deoxyuridine (EdU), which is incorporated into DNA during S-phase and can be fluorescently activated using a fluorochrome that has been conjugated to an azide molecule. Cells that are the result of cellular division in the presence of EdU were identified by the resulting green fluorescent signal, which can be quantified by various means, e.g., with a microplate reader, cell counter, or cell sorter.
In a separate experiment, maize HiIIA protoplasts were grown in 24-well plates using YPIM B-liquid medium containing 100 millimolar Ca^2+ and 20 micromolar EdU. Identical plates were incubated under hypoxia (5% oxygen by volume, 26 degrees Celsius, 80% relative humidity) or ambient oxygen (21% oxygen by volume, 26 degrees Celsius, 80% relative humidity). Entire wells (250 microliters) were taken for EdU detection at four time points. The contents of each well was centrifuged and the pellet subjected to the Click-iT™ EdU Alexa Fluor™ 488 Imaging Kit (catalogue number C10337, Thermo Fisher Scientific, Waltham, Mass.) fluorescent labelling protocol. The labelled protoplasts were resuspended in YPIM B-medium and samples analyzed on a Nexcelom Cellometer (Nexcelom Bioscience LLC, Lawrence, Mass.). This assay was developed to detect the EdU signal from the nucleus of a cell resulting from cell division, as well as the fluorescent signal from chloroplasts as a measure of total cell count. Results are provided in Table 4 as a percentage of cells displaying the EdU signal relative to the total cell count (“% EdU”).

maize A188 protoplasts [2] = assay: Signs of cell division by microscopy under 5% or 21% oxygen; type: cell-based; details: day 8, 100 millimolar Ca^2+ in YPIM B-, 5% oxygen vs 21% oxygen by volume
Protocol: as §7
In one experiment, maize A188 protoplasts were grown under either 5% or 21% oxygen by volume in YPIM B-liquid medium containing 100 millimolar Ca^2+.

maize A188 protoplasts [3] = assay: Protoplast viability (Evans blue staining / light microscope / hemocytometer); type: cell-based; details: for Viability (%): 100 mM Ca; for viability / appearance: 50 millimolar; for protoplast viability: 288 hours, YPIM B- medium
Protocol: as §1, §2
Separate suspensions of maize A188 protoplasts (2×10^5 cells per milliliter) were prepared in YPIM B-liquid medium containing calcium chloride at 0 or 50 millimolar. One-half milliliter aliquots of the suspensions were dispensed into a 24-well microtiter plate.
as §4
as §3, with “B73 and A188” for “B73”, “0” for “0, 5, 20, 40, 70,”, “50” for “100”
as §5, §6

maize B104 protoplasts = assay: Cell division rate by EdU staining (% EdU); details: O2 5%, Ca^2+ 100 mM, glutathione 0 mM, 90 h
Protocol: Cell division rates are expressed as “% EdU” (percentage of cells displaying the EdU signal relative to the total cell count).
Cell division was monitored, e.g., by microscopic observations. […] Evidence of cell division was observed by microscopy and included increased cell or protoplast size, bulging membranes, and large groups of organelles occupying the separating daughter cells. Quantification of cell division was carried out using fluorescent staining. […] Cells that are the result of cellular division in the presence of EdU were identified by the resulting green fluorescent signal, which can be quantified by various means, e.g., with a microplate reader, cell counter, or cell sorter.
Entire wells (1000 microliters) were taken for EdU detection at three time points; analyses were of duplicate samples of each of two replicate wells.

[4] = day 13, 50 millimolar calcium, Evans blue

[Ca+2].[Cl-].[Cl-] [calcium chloride]
viability [1]: no large differences
viability (soybean protoplasts; day 13, 50 millimolar calcium): 50%
viability (soybean protoplasts; day 13, 100 millimolar calcium): 50%
Viability (%) (maize B73 protoplasts; 0 hours, hemocytometer): 90%
Viability (%) (maize B73 protoplasts; 16 hours): 65%
Viability (%) (maize B73 protoplasts; 40 hours): 57%
Viability (%) (maize B73 protoplasts; 64 hours): 58%
Viability (%) (maize B73 protoplasts; 136 hours): 30%
protoplast viability (maize B73 protoplasts; 50 mM added salt): almost all dead
protoplast viability (maize B73 protoplasts; 100 mM added salt): 10-20%
viability and cell division (maize B73 protoplasts; PIM B- medium, 100 millimolar calcium): strongest enhanced viability and cell division
viability (maize B73 protoplasts; day 6, PIM B- medium, 50 millimolar calcium): still contained viable cells
viability and cell division (maize B73 protoplasts; day 7, PIM B- medium, 40, 70, or 100 millimolar calcium): formed clusters of viable, healthy cells with cell division occurring
viability (maize B73 protoplasts; day 7, PIM B- medium, less than 40 millimolar calcium): dead
viability (maize B73 protoplasts; day 8, 50 millimolar calcium, YPIM B-, light microscope): 30%
viability (maize B73 protoplasts; day 8, 100 millimolar calcium, YPIM B-, light microscope): 80%
viability (maize B73 protoplasts; [4]): 0%
viability of the maize protoplasts (second statement in the sentence) (maize B73 protoplasts; [4]): 50%
viability (maize B73 protoplasts; day 13, 100 millimolar calcium, Evans blue): 10%
% EdU (maize HiIIA protoplasts; 5% oxygen by volume, 93 hours): 12%
% EdU (maize HiIIA protoplasts; 5% oxygen by volume, 117 hours): 19%
% EdU (maize HiIIA protoplasts; 5% oxygen by volume, 165 hours, listed as Ca^2+): 19% and 15%
% EdU (maize HiIIA protoplasts; 21% oxygen by volume, 93 hours): 6.5%
% EdU (maize HiIIA protoplasts; 21% oxygen by volume, 117 hours, listed as Ca^2+): 6.9% and 8.0%
% EdU (maize HiIIA protoplasts; 21% oxygen by volume, 141 hours, listed as Ca^2+): 13% and 4.8%
% EdU (maize HiIIA protoplasts; 21% oxygen by volume, 165 hours, listed as Ca^2+): 5.0% and 0.0%
signs of cell division (maize A188 protoplasts [2]): many more protoplasts displaying signs of cell division
Viability (%) (maize A188 protoplasts [3]; 0 hours, hemocytometer): 90%
Viability (%) (maize A188 protoplasts [3]; 16 hours): 67%
Viability (%) (maize A188 protoplasts [3]; 40 hours): 57%
Viability (%) (maize A188 protoplasts [3]; 64 hours): 59%
Viability (%) (maize A188 protoplasts [3]; 136 hours): 46%
viability / appearance (maize A188 protoplasts [3]; 96 hours, vs no added calcium): appeared healthier
viability / appearance (maize A188 protoplasts [3]; 168 hours (7 days)): very many large, healthy-looking protoplasts
protoplast viability (maize A188 protoplasts [3]; 50 mM added salt): about 20%
protoplast viability (maize A188 protoplasts [3]; 100 mM added salt): about 70%
viability (maize A188 protoplasts [3]; day 6, PIM B- medium, 50 millimolar calcium, several wells): 100%
cell wall regeneration and cell division (maize A188 protoplasts [3]; day 20, 50 millimolar): had generated cell walls and undergone at least some cell division
EdU staining mean % (maize B104 protoplasts): 21.9%

Source: patent publication US11168319B1, “Plant cell culture” (Inari Agriculture Technology, Inc., priority 2017, dated 2021)
